The source of these data is ChEMBL document CHEMBL4052771, “3,5-Bis(3-dimethylaminomethyl-4-hydroxybenzylidene)-4-piperidone and related compounds induce glutathione oxidation and mitochondria-mediated cell death in HCT-116 colon cancer cells” (Bioorg Med Chem Lett, 2017).

The source made the active and inactive calls. No cut-off for these calls is given here.

The test system of series [1] is Liver. Briefly: Stimulation of mitochondrial respiration in Wistar rat liver […] assessed as oxygen consumption rate at 20 and 25 uM using pyruvate and malate as respiratory substrate after 4 mins. Type of series: functional.
Series [2] concerns HCT-116. Briefly: Induction of mitochondrial superoxide generation in human HCT116 cells at antiproliferative GI50 after 60 mins by mitoSOX red-probe based fluorescence assay. The format is functional, cell-based.
In series [3] the test system is HCT-116. Briefly: Antiproliferative activity against human HCT116 cells after 48 hrs by sulforhodamine B assay. The settings on record: HCT-116, 48 h. Type of series: functional. In general terms: Sulforhodamine B stains cellular protein and so reports cell mass.
Series [4] can be described thus: Cytotoxicity against human CRL1790 cells assessed as reduction in cell viability after 48 hrs by sulforhodamine B assay. The settings on record: CRL1790 (CCD-841CoN) cells. The format is cell-based.
Series [5] concerns Liver. Briefly: Induction of mitochondrial swelling in Wistar rat liver […] at 0.1 uM after 20 mins in presence of pyruvate and malate by spectroscopic analysis. The format is functional.
Series [6] relates to HCT-116. The series can be described thus: Induction of reactive oxygen species generation in human HCT116 cells at antiproliferative GI50 after 60 mins by DCFH-DA probe based assay. The format is functional, cell-based.
The subject of series [7] is HCT-116. Briefly: Induction of mitochondrial membrane potential loss in human HCT116 cells at antiproliferative GI50 after 48 hrs by JC-1 staining based fluorescence assay. The format is functional, cell-based.
Series [8] can be described thus: Selectivity index, ratio of GI50 for human CRL1790 cells to GI50 for human HCT116 cells. The format is functional.
Series [9] deals with HCT-116. The series can be described thus: Induction of glutathione oxidation in human HCT116 cells assessed as increase in GSSG/GSH ratio at 500 uM in presence of NADPH after 48 hrs by Ellman's method. Type of series: functional, cell-based. (Ellman's reagent forms a yellow product with free thiols.)
Series [10] deals with Liver. The series can be described thus: Stimulation of mitochondrial respiration in Wistar rat liver […] assessed as oxygen consumption rate at 0.1 and 10 uM using pyruvate and malate as respiratory substrate after 4 mins. The format is functional. In general terms: Liver microsomes are a subcellular fraction often used to study metabolism.

For `O=[N+]([O-])c1ccc(O)c([N+](=O)[O-])c1`, the result in the series with Liver [1] was Active.

Broadly, the GI50 is the concentration giving 50% growth inhibition. `COc1cc(/C=C/C(=O)CC(=O)/C=C/c2ccc(O)c(OC)c2)ccc1O` [CURCUMIN]: the result with HCT-116 [2], in the series on Liver [5], in the series with HCT-116 [6], in the series on HCT-116 [7] and with HCT-116 [9] was Active. In the series on HCT-116 [3], this compound came in with a GI50 of 3.5 µM. For the same compound, the GI50 at 48 h in series [4] is 58.6 µM. In addition, in series [8], the RatioGI50 worked out at 16.7.

The compound `O=c1[nH]cc(F)c(=O)[nH]1` [FLUOROURACIL] returned a GI50 with HCT-116 [3] of 5.47 µM. For the same compound, the concentration for 50% growth inhibition (GI50) at 48 h in series [4] is 10.3 µM. Also, the result in the series with Liver [5] and with Liver [10] was inactive. Besides, the RatioGI50 in [8] is on record as 1.88.
